Results reported in ChEMBL document CHEMBL1201862, “PubChem BioAssay data set” (2004).
Calls of active or inactive are those of the source.

What was measured:
[1] = NIH-3T3 fibroblast cytotoxicity, dose response, cytotoxicity control, cell-based, fluorescence, Alamar Blue, secondary assay (AID 2327); assay type: functional;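 note: NIH-3T3 mouse fibroblasts cultured with fluconazole at 8 µg/mL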
[2] = system: INS1; assay: beta cell apoptosis inhibitors, cytokine rescue, dose response, luminescence, retest (AID 449756); assay type: functional, cell-based; settings: Rattus norvegicus;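 note: cell death triggered by IL-1 beta plus TNF-alpha plus IFN-gamma mixture; protective hits raise ATP signal compared with cytokine alone wells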
[3] = HEp-2 cell cytotoxicity, dose response, cytotoxicity control for RSV inhibitor project, HTS (AID 2410); assay type: functional; settings: human respiratory syncytial virus
[4] = target: T1, Protein RecA (Mycobacterium tuberculosis, UniProt P9WHJ3); assay: Fluorescence Cell-Free Homogeneous Dose Retest to Identify Inhibitors of RecA-Intein Splicing Activity. [Related pubchem assays (depositor defined):AID2097, AID2223, AID489010, AID492950]; assay type: functional
T1 sequence (P9WHJ3 whole entry): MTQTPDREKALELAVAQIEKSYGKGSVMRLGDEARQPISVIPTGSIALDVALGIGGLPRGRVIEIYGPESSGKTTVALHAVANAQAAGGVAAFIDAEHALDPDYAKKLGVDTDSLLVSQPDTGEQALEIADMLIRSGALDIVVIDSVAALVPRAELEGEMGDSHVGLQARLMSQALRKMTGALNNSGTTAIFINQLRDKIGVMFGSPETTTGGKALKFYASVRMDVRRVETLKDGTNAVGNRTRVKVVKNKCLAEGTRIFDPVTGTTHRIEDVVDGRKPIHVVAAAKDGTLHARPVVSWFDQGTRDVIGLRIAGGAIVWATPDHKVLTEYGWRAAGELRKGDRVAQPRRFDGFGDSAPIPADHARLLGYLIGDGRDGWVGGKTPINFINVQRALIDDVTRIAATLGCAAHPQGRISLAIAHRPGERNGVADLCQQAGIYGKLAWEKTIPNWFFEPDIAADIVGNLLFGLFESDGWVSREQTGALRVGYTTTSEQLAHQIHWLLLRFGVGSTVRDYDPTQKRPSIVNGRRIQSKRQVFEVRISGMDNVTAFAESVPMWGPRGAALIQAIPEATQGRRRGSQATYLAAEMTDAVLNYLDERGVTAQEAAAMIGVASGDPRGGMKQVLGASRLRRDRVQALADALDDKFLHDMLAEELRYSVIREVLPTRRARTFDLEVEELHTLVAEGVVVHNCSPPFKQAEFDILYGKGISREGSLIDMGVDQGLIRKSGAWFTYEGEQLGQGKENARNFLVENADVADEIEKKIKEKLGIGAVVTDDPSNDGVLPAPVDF

[5] = system: Streptococcus sp. 'group A'; assay: growth inhibition of control SK(-) GAS strain, dose response, counter-screen for streptokinase expression inhibitor project, luminescence, kanamycin, BacTiterGlo, confirmation (AID 1900); assay type: functional, organism-based
[6] = target: T2, Streptokinase A (Streptococcus pyogenes serotype M1, UniProt P10520); assay: S. pyogenes streptokinase expression inhibitors, potency, dose response, plasminogen activation absorbance, OD405 (AID 1914); assay type: functional, Streptococcus pyogenes M1 GAS;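 note: secreted streptokinase activity via plasminogen activation per viability signal from cell pellet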
T2 sequence (P10520 whole entry): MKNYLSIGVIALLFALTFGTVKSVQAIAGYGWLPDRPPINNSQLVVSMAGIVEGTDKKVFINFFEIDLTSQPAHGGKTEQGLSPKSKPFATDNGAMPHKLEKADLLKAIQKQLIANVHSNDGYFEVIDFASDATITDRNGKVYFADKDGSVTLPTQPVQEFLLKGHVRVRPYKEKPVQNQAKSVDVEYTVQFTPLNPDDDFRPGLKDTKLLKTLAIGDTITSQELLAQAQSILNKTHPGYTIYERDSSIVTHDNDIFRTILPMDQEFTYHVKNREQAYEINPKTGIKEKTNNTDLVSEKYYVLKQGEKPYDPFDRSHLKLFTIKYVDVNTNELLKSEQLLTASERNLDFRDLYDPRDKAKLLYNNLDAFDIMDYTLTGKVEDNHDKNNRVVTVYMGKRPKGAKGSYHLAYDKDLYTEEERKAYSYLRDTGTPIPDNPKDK

[7] = system: Streptococcus; assay: Group A Streptococcus viability loss, dose response, counter-screen for streptokinase expression inhibitor project, luminescence, BacTiterGlo (AID 1915); assay type: functional, organism-based;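 note: potency for reduction of bacterial viability or growth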
[8] = target: T3, RNA-binding protein pos-1 (Caenorhabditis elegans, UniProt G5EF15); assay: inhibitors of POS-1/mex-3 RNA binding, dose response, biochemical, fluorescence polarization (AID 1964);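 note: purified POS-1 fused to maltose binding protein made in E. coli; potency of compounds blocking POS-1 binding to fluorescent RNA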
T3 sequence (G5EF15 whole entry): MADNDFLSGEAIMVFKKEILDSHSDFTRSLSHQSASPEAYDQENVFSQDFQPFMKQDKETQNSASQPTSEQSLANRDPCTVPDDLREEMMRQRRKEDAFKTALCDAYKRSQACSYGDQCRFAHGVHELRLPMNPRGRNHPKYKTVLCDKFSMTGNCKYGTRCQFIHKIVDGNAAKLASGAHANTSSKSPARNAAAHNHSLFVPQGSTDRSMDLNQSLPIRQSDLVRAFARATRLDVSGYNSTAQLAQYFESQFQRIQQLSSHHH

[9] = Luminescence Cell-Based Dose Response HTS to Identify Activators of Luciferase Translation or Activity in H4 […] Cells. [Related pubchem assays: 1829 (Project Summary), 1814 (Primary HTS)]; assay type: functional
[10] = system: H4; assay: Luminescence Cell-Based Dose Response HTS to Identify Activators of 5'UTR Stem-Loop Driven Prion Protein mRNA Translation in H4 Neuroglioblastoma Cells. [Related pubchem assays: 1829 (Project Summary), 1814 (Primary HTS)]; assay type: functional; settings: Homo sapiens
[11] = target: T4, Replicative DNA helicase DnaB (Mycobacterium tuberculosis, UniProt P9WMR3); assay: DnaB intein splicing inhibitors, dose response, biochemical, cell-free fluorescence (AID 449749); assay type: functional
T4 sequence (P9WMR3 whole entry): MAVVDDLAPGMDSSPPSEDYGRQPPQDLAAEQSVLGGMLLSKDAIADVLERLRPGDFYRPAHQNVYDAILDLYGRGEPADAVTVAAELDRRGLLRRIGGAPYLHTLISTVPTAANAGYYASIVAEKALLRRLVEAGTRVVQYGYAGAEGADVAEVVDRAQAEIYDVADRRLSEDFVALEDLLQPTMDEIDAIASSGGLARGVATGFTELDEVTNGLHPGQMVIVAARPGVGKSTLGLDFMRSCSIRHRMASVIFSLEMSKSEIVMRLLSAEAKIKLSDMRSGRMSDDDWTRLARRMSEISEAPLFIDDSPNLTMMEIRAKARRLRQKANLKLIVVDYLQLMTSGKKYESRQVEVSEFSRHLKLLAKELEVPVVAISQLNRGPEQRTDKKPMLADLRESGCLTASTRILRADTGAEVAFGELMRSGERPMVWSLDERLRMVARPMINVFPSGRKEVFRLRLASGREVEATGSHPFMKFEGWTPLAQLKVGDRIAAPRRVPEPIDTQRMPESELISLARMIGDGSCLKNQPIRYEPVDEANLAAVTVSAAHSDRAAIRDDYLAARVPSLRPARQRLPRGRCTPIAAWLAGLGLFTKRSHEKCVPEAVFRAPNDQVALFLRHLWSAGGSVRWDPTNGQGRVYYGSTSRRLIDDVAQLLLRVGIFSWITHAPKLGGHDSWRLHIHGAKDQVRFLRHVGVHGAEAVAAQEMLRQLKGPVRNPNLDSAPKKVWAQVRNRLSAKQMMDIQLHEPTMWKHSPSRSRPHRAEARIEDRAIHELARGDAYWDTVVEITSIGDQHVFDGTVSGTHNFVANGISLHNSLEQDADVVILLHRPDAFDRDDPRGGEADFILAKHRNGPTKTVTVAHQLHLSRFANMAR

[12] = target: T5, Heat shock factor protein 1 (Mus musculus, UniProt P38532); assay: inhibition of MG132-induced HSE-luciferase signal, confirmation, cell-based, NIH3T3, luminescence, dose retest (AID 2382); assay type: functional;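 note: NIH3T3 fibroblasts with HSF1-driven luciferase reporter stressed by proteasome inhibitor MG132; luminescence from HSF1-driven luciferase expression after 8 hours of MG132 stress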
T5 sequence (P38532 whole entry): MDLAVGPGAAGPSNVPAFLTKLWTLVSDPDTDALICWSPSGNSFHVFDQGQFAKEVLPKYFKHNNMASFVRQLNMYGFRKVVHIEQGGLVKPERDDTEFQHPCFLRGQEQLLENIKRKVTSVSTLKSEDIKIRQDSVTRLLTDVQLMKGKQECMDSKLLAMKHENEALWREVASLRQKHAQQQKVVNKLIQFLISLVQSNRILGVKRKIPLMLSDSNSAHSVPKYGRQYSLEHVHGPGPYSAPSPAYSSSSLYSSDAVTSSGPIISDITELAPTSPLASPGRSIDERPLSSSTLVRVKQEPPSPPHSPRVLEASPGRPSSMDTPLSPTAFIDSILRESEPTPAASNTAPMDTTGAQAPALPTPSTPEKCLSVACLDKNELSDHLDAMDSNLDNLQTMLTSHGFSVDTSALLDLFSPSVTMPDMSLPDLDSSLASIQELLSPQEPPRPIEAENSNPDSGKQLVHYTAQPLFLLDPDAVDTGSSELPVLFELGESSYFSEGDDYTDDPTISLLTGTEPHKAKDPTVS

[13] = target: Cytochrome P450 3A4 (Homo sapiens, UniProt P08684);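 note: CYP3A4 tested as one member of a cytochrome P450 panel screen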
Cytochrome P450 3A4, sequence (P08684 whole entry): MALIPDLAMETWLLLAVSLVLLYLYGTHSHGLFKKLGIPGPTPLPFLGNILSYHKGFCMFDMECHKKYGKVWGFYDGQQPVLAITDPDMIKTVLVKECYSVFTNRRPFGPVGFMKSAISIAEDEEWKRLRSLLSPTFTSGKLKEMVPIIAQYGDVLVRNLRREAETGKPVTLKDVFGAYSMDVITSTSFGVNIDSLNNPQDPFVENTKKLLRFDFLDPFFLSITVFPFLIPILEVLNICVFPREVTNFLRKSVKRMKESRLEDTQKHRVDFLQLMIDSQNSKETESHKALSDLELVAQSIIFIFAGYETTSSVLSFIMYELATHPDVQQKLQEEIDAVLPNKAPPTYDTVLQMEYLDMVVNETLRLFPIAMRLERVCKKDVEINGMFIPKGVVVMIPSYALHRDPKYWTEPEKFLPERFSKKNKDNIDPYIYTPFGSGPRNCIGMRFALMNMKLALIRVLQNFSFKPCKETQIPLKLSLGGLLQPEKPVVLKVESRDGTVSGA

[14] = control 3'UTR Renilla luciferase suppression, dose response, counter-screen for Shn3 inhibitor project, cell-based, Clone20-Shn3RL, cherry-picked (AID 624133); assay type: functional

CC(=O)Nc1ccc(NC(=O)CSc2ccc3nnc(CCNS(=O)(=O)c4ccc(C)cc4)n3n2)cc1
EC50 [1]: > 160 µM (inactive)

CC(O)CNc1nc2sc3c(c2c(=O)n1Cc1ccco1)CCCCC3 (stereo not given)
AC50 [2]: 45 µM (active)

C=CC/N=C1/S/C(=C/c2cccc([N+](=O)[O-])c2)C(=O)N1CC=C
CC50 [3]: 28 µM (active)

O=C(CSC1=NCCS1)Nc1ccc(S(=O)(=O)NC2CCCCC2)cc1
EC50 [4]: 13.3 µM (active)

CCOc1ccc(C(=O)N/N=C(\c2ccccc2)c2ccccn2)cc1
EC50 [5]: 4.25 µM (active) | EC50 [6]: > 150 µM (not active) | EC50 [7]: 11.8 µM (active) | AC50 [2]: 1.19 µM (active)

Cc1ccc(S(=O)(=O)N2CCN(C(=O)c3ccc(N4CCCCC4)c([N+](=O)[O-])c3)CC2)cc1
CC50 [3]: > 50 µM (active)

COc1ccc(N2C(=O)NC(=O)/C(=C\c3cn(C)c4ccccc34)C2=O)cc1
EC50 [8]: 1.05 µM (active)

O=C1CCSc2ccc(Cl)cc2N1Cc1ccc(Cl)cc1
EC50 [5]: 7.8 µM (active) | EC50 [6]: 18.4 µM (active) | EC50 [7]: 49.5 µM (active) | CC50 [3]: 23.4 µM (active)

CCc1ccc(Nc2nnc(SCc3cc(=O)n4ccsc4n3)s2)cc1
CC50 [3]: 26.4 µM (active)

CN(c1ccccc1)S(=O)(=O)c1cccc(NC(=O)c2cccc(C#N)c2)c1
CC50 [3]: 16.1 µM (active)

O=S(=O)(c1ccccc1F)N1CCC(c2nc(O)c3nnn(Cc4ccc(F)cc4)c3n2)CC1
CC50 [3]: 27 µM (active)

O=C(CNC(=O)c1ccc(F)cc1)c1ccc(Cl)cc1
EC50 [9]: 0.717 µM (active) | EC50 [10]: 79 µM (active)

COC(=O)Cc1n[nH]c2c1C(c1ccc(O)c(OC)c1)C(C#N)=C(N)O2 (stereo not given)
EC50 [4]: 2.88 µM (active) | AC50 [11]: 7.51 µM (inconclusive)

Cn1nc(C(F)(F)F)c2cc(C(=O)Nc3ccc(Cl)cc3)sc21
CC50 [3]: 21.4 µM (active)

CN1C(=O)N(C)c2cccc3cccc1c23
CC50 [3]: 22.5 µM (active)

CN(CC(=O)Nc1ccc(N2CCOCC2)cc1)CC(=O)Nc1cccc(C#N)c1
EC50 [4]: > 380 µM (inactive) | AC50 [11]: 199 µM (active)

COC(=O)CC1=NN(c2ccccc2)C(=O)C1
EC50 [4]: 4.42 µM (active) | AC50 [11]: 13.2 µM (active)

O=S(=O)(c1cccs1)N1CCN(CC(O)COc2cc(Cl)ccc2Cl)CC1 (stereo not given)
AC50 [2]: 5.11 µM (active)

CCc1ccc(OC)c(S(=O)(=O)Nc2ccc(Cc3ccncc3)cc2)c1
AC50 [2]: 3.7 µM (active)

CCc1cc(C(=O)c2ccc(C)cc2)c(NC(=O)CCl)s1
EC50 [4]: 1.07 µM (active) | AC50 [11]: 3.98 µM (active)

Cc1ccc(C2C(C#N)=C(N)Oc3[nH]nc(-c4cccnc4)c32)o1 (stereo not given)
EC50 [4]: 6.46 µM (active) | AC50 [11]: 25.6 µM (active)

Cc1c(-c2nn(C)c(=O)c3ccccc23)oc2ccc(F)cc2c1=O
EC50 [4]: 2.51 µM (active) | AC50 [11]: 3.86 µM (active)

CC1(C)CC(NCc2ccc3c(c2)OCO3)CCO1 (stereo not given)
EC50 [12]: > 195 µM (not active) | AC50 [13]: 17.8 µM (inconclusive)

Cc1cc(NC(=O)COC(=O)[C@@H](NS(=O)(=O)c2ccc(Br)cc2)C(C)C)no1
EC50 [1]: > 150 µM (inactive)

c1ccc(-c2ccc(C3=Nn4c(nnc4-c4cccs4)SC3)cc2)cc1
CC50 [3]: 16.6 µM (active)

CCSC1=NC(/C=C/c2ccc(Cl)cc2Cl)=CC(C)(C)N1
CC50 [3]: 18 µM (active)

Cc1nn(Cc2ccccc2)c2c1C(c1ccccc1)C(C#N)=C(N)O2 (stereo not given)
EC50 [4]: 3.64 µM (active) | AC50 [11]: 8.53 µM (active)

O=C(CSc1nc2cc(Cl)c[nH]c-2n1)N1CCOCC1
AC50 [14]: 32.3 µM (active)

Cc1ccc(C)c(N2CCN(S(=O)(=O)c3ccc(-c4cc(C)no4)s3)CC2)c1
CC50 [3]: > 50 µM (active)

C=C(C)C(=O)N1CC2(CC(c3cccc(NC(=O)COc4ccc(Cl)cc4)c3)=NO2)C[C@@H]1C(N)=O (stereo not given in full)
AC50 [2]: 9.67 µM (active)
